{
  "source": "patent US12577138B2",
  "about": "“Using Daphnia for bioremediation” (priority 2019, dated 2026)",
  "test_system": "Daphnia magna genotype pools",
  "assay": "Viability of Daphnia magna genotype pools (1999, 1980, 1960) exposed to Carbaryl for four weeks",
  "type": "in vivo",
  "conditions": "Carbaryl 10 μg/L",
  "experimental": "The ability to thrive of different Daphnia magna genotype pools resurrected from 1999, 1980, and 1960, was tested in presence of high concentrations of the carbamate insecticide Carbaryl (10 μg/L). Carbamate pesticides have been used at high levels since the 1970s, and so carbamate pesticides represent a common contaminant to current wastewater.\nThe three genotype pools were exposed to high concentrations of the carbamate insecticide Carbaryl in replicated large aquaria of 10 L. The aquaria contained borehole water to which a known concentration of Carbaryl was added. Each pool comprised different genotypes but the number of individuals in each pool was identical.\nPrior to the exposure, the genotypes were individually cultured for two generations in the following conditions to control for maternal effects and synchronize reproduction: 20° C.; long photoperiod (16:8 light:dark regime); feed daily with 0.8 mg Carbon/L of C. vulgaris; medium was renewed every second day. After this phase, five 24-48 h old juveniles from the second brood of the third generation from 7 genotypes of each pool were randomly assigned to three replicated 10 L aquaria resulting in a total of 105 animals per aquarium (5 juveniles×7 genotypes×3 pools). The aquaria were then exposed to Carbaryl for four weeks (3 clonal generations). […]\nThe initial occurrence of each pool of genotypes was then compared to the random subset of animals sampled at the end of the experiment and genetically fingerprinted. This allowed to quantify changes in the occurrence of pool of genotypes from the three initially equally inoculated three pools. Changes in the occurrence of each pool of genotypes between the inoculum and the end of the experiment were quantified with a chi-squared test using the “stats” package in R v. […]",
  "data": [
    {"smiles": "CNC(=O)Oc1cccc2ccccc12", "note": "[Carbaryl]", "values": [
      {"measurement": "change in occurrence of genotypes versus initial inoculum", "setting": "1960 pool", "value": "did not experience a significant change in the number of genotypes"},
      {"measurement": "change in occurrence of genotypes versus initial inoculum", "setting": "1980 pool", "value": "significantly decrease in the number of genotypes and almost disappeared"},
      {"measurement": "change in occurrence of genotypes versus initial inoculum", "setting": "1999 pool", "value": "did not experience a significant change in the number of genotypes"}
    ]}
  ]
}
